Reference: a compilation of properties of binary mixtures (doi:10.1016/j.molliq.2012.10.030)

Assay: xn = mol fraction of the nth substance listed
Details: 101 kPa

CNc1ccccc1 + CC[n+]1ccn(C)c1.F[B-](F)(F)F
speed of sound [m/s]
Details | 293.15 K | 298.15 K | 303.15 K | 308.15 K
x1 = 0.0712 | – | 1614.7 | 1602.2 | 1590.8
x1 = 0.0944 | – | 1613.8 | 1601 | –
x1 = 0.1175 | – | 1613.2 | 1600.3 | 1588.7
x1 = 0.1685 | 1624.3 | 1612.5 | 1599.3 | 1587.6
x1 = 0.2164 | – | – | 1599.5 | 1587
x1 = 0.2818 | 1626.5 | 1613.9 | – | 1587.3
x1 = 0.3365 | 1628.2 | – | 1601.2 | 1587.4
x1 = 0.3805 | 1629.4 | 1616.2 | 1602.2 | –
x1 = 0.4166 | 1630.8 | 1617.3 | 1602.8 | 1587.8
x1 = 0.4775 | 1632.2 | 1617.7 | 1602.8 | 1587.7
x1 = 0.5287 | 1632.6 | 1617.9 | 1602.4 | 1586.3
x1 = 0.5855 | 1631.8 | 1616.5 | 1601.1 | 1584.2
x1 = 0.6144 | 1631 | 1615.8 | 1599.8 | 1583
x1 = 0.6638 | 1629.2 | 1612.8 | 1596.4 | –
x1 = 0.7202 | 1625.3 | 1608.7 | 1591.8 | 1573.8
x1 = 0.7822 | 1618.8 | 1601.9 | 1584.4 | 1566.7
x1 = 0.8343 | 1612 | 1594.6 | 1577.1 | 1558.8
x1 = 0.8775 | 1605.6 | 1587.8 | 1570.3 | 1551.7

Cc1ccccc1N + CC[n+]1ccn(C)c1.F[B-](F)(F)F
speed of sound [m/s]
Details | 293.15 K | 298.15 K | 303.15 K | 308.15 K
x1 = 0.0684 | 1639.1 | 1625 | 1612.5 | 1600.1
x1 = 0.0786 | – | 1626.5 | – | 1601.3
x1 = 0.1243 | – | 1634.3 | 1621.2 | 1607.9
x1 = 0.1783 | – | 1645.9 | 1632 | 1618
x1 = 0.2255 | 1668.2 | 1657.2 | 1643.2 | –
x1 = 0.2781 | 1679.5 | 1670.1 | – | 1640.6
x1 = 0.3234 | 1689.5 | – | 1667.1 | 1651.6
x1 = 0.3712 | – | – | 1678 | 1662.1
x1 = 0.4096 | 1706.3 | – | 1685.2 | 1669.1
x1 = 0.4763 | 1716.8 | 1710.8 | – | 1679
x1 = 0.5242 | 1722.8 | 1716 | 1700.5 | 1683.9
x1 = 0.5781 | 1726.3 | 1717.7 | 1701.7 | 1685
x1 = 0.6254 | 1725.7 | – | 1698.4 | –
x1 = 0.6771 | 1723.3 | 1709.7 | 1692.5 | 1675.6
x1 = 0.7226 | 1716.8 | 1700.6 | 1682.6 | 1665.6
x1 = 0.7683 | 1708 | 1689.4 | 1670.5 | 1653.2
x1 = 0.8276 | 1692.8 | 1671.5 | 1651.2 | 1633.6
x1 = 0.8687 | 1679 | 1656.7 | 1635.4 | 1617.4

Nc1ccccc1 + CC[n+]1ccn(C)c1.F[B-](F)(F)F
speed of sound [m/s]
Details | 293.15 K | 298.15 K | 303.15 K | 308.15 K
x1 = 0.0697 | – | 1622.2 | 1610.3 | –
x1 = 0.0803 | 1635.7 | 1622.9 | – | 1598.9
x1 = 0.1286 | 1640 | 1626.7 | 1614.7 | 1602.6
x1 = 0.1717 | – | 1631.2 | – | 1606.5
x1 = 0.2251 | 1650.5 | 1637.2 | – | 1612.4
x1 = 0.2724 | 1656.5 | – | 1630.2 | 1617.6
x1 = 0.3253 | 1662.9 | – | 1636.4 | 1624.1
x1 = 0.3805 | 1669.9 | – | 1642.3 | 1630.2
x1 = 0.4288 | 1675 | 1662 | 1647.5 | 1634.5
x1 = 0.4681 | 1679 | 1666.2 | – | 1637.9
x1 = 0.5287 | – | 1670.4 | – | 1642
x1 = 0.5755 | – | 1673.2 | – | 1643
x1 = 0.6258 | – | 1673.9 | – | 1643.3
x1 = 0.6802 | – | 1673.3 | 1655.5 | –
x1 = 0.7231 | – | 1672 | – | 1639.2
x1 = 0.7785 | 1685.7 | 1667.6 | 1648.9 | 1634.7
x1 = 0.8257 | 1681.7 | 1663.2 | 1644.1 | 1628.9
x1 = 0.8697 | – | – | 1638.4 | –
